Patent US9115073B2, “1,3-diphenylpropane derivatives, preparations and uses thereof” (GENFIT, priority 2011, dated 2015)
pEC50: −log10 of the molar value.

Columns and labels:
hPPARgamma = molecular target: T1, hPPARgamma (Homo sapiens, UniProt P37231); assay: Gal4-hPPARgamma transactivation assay in COS-7 cells (luciferase); assay type: cell-based
T1 construct: Gal4-hPPARγ(LBD); Gal4 (fusion partner); expressed in transfected cells; host or cells: COS-7 (monkey kidney)
T1 sequence (P37231 238-503 limits assumed): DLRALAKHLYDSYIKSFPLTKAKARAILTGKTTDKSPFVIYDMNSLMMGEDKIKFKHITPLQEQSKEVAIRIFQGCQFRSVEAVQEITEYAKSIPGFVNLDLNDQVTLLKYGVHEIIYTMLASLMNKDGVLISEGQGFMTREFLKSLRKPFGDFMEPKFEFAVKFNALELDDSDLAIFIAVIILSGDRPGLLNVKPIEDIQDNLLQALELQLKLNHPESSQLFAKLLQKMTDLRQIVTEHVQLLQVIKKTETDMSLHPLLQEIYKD
Method in brief: (§1)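 COS-7 cells transiently co-transfected with Gal4-hPPAR chimeras and a Gal4(RE)_TkpGL3 luciferase reporter (1/50 ratio) were seeded at 20,000 cells/well for 4 h, then treated in 2% lipid-free synthetic serum medium (0.1% DMSO). EC50 and Hill slope came from fitted luciferase curves. Emax is relative to fenofibrate 100 μM (α), rosiglitazone 10 μM (γ) or GW501516 1 μM (δ).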

hPPARdelta = molecular target: T2, hPPARdelta (Homo sapiens, UniProt Q03181); assay: Gal4-hPPARdelta transactivation assay in COS-7 cells (luciferase); assay type: cell-based
T2 construct: Gal4-hPPARδ(LBD); Gal4 (fusion partner); expressed in transfected cells; host or cells: COS-7 (monkey kidney)
T2 sequence (Q03181 211-439 limits assumed): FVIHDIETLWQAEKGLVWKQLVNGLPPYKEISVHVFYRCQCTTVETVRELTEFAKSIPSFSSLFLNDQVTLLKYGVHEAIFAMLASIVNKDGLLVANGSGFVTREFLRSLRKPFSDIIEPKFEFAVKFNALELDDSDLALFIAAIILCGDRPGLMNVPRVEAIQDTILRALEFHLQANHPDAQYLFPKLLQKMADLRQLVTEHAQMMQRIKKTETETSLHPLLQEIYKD
Method in brief: as §1

[1] = Compound pharmacokinetics study in mice (plasma and brain); assay type: in vivo; conditions: mouse; for AUC(0-t): iv (2 mpk) or PO (10 mpk), followed for 24 hours
Protocol: Compound Pharmacokinetics Study in Mice
The compound was administered to six male swiss mice (five weeks old) by the PO route and six male mice by the iv route (caudal vein). […] For the PO route (10 mg/kg), the compound was dissolved in a solution of 0.5% Methyl cellulose (ref sigma M0262) and 0.3% Polysorbate 80 (Tween 80—ref sigma P8074). During the iv administration and blood sampling animals were anesthetized with Isofluorane® (from Belamont) using an anaesthetic system (Minerve). At the precise time-point, blood samplings were done at the retro-orbital sinus, with a capillary tube. The blood volume collected per each time-point was 0.2-0.3 ml. Blood samples were collected into tubes containing both lithium and heparin and then centrifuged at 2500 rpm at 4° C. Plasma was removed and transferred into polypropylene tubes. Individual plasma aliquots were frozen at −20° C. (±5° C.) and stored until analysis.
After blood sampling, the animals were perfused with 7 ml cold saline solution directly into the heart to extract the maximum of blood from the brain vasculature. Animals were then beheaded and the brain tissue collected and frozen at −20° C. (±5° C.) and stored until analysis. Prior to the sample analysis, the suitability of the analytical method to detect the compounds to be evaluated was performed as described below. The molecular and daughter ions were selected for each molecule by direct infusion into the MS-MS system. For those plasma samples which are mixed prior to analysis, precaution was taken to avoid mixing common moieties both with regards to the parent compounds as well as potential metabolites. According to the expected sensitivity, 8 point calibration standards (1, 5, 10, 50, 100, 500, 1000 and 5000 ng/mL) were run using standard conditions which consist to LC/MS/MS system with C18 column after precipitation of the plasma proteins with acetonitrile before the start of the analytical test. Calibration standards were performed in each matrix (plasma and brain). Prior to analysis, 100 μL of each plasma sample was mixed with 300 μL acetonitrile. Following protein precipitation, samples were vortex mixed for 30 seconds, centrifuged 5 min at 15000 tr/min and the supernatant was removed. Analyses were performed using LC/MS/MS determination according to previous analytical test results. Brains were homogenized with a potter using water (1/1, w/w). 100 μl of the homogenate was mixed with 100 μl of acetonitrile. The mixture was mixed (Vortex) for 30 seconds, then centrifuged during 5 min at 15000 tr/min. Brain homogenate supernatants were directly measured by LC/MS/MS after centrifugation. LC-MS/MS system was used with a C18 Kromasil column and API4000® from Applied Biosystem or Quattro® from Waters as mass spectrometers.

[2] = maximal relative activation vs reference, listed as cpd 14-1-2

- pEC50 (hPPARgamma; Gal4-hPPARγ(LBD) transactivation): 7.96
- Gal4-hPPARγ(LBD) TOP (% ref) (hPPARgamma; [2]): 82 % ref
- pEC50 (hPPARdelta; Gal4-hPPARδ(LBD) transactivation): 8.40
- Gal4-hPPARδ(LBD) TOP (% ref) (hPPARdelta; [2]): 90 % ref
- bioavailability ([1]; male, Swiss, plasma, PO (10 mpk) versus iv (2 mpk), read-out: F % (bioavailability)): 93%
- AUC(0-t) ([1]; male, Swiss, brain): 26700 ng·h/mL
- Kp ([1]; male, Swiss, from AUC comparison brain to plasma, read-out: part of the administered compound that penetrates into the brain): 0.37
- AUC(0-t) ([1]; male, Swiss, plasma): 71800 ng·h/mL
- brain/plasma ratio ([1]; AUC comparison (brain exposure to plasma exposure ratio)): 0.37
- F % (bioavailability) ([1]; PO (10 mpk) versus iv (2 mpk)): 92.9%
Compound: COC(c1ccc(OC(F)(F)F)cc1)C1CC1c1cc(C)c(OC(C)(C)C(=O)O)c(C)c1 (single isomer, unassigned) [Cpd 14-1-2, 2-(4-(2-(methoxy(4-(trifluoromethoxy)phenyl)methyl)cyclopropyl)-2,6-dimethylphenoxy)-2-methylpropanoic acid]
